Source: patent publication US5069812A, “Bleach/builder precursors” (priority 1990, dated 1991)

Key:
[1] = Stain bleaching on tea-stained cotton (Terg-O-Tometer wash, reflectance change); conditions: 40° C., 15 minutes, BC1 cloth, pH = 9.0-9.5, [precursor] = 6.2 × 10^-4 M, [H2O2] = 6.25 × 10^-3 M; corrected for H2O2 and detergent alone
Description: Typically, cotton test pieces (4 in.×4 in.) stained with the tea are washed in a Terg-O-Tometer in 1 l. of aqueous solution containing a given level of bleach precursor, hydrogen peroxide, buffer, and surfactant (generally sodium dodecylbenzenesulfonate).
Washes are carried out at 40° C. for 15 minutes. Stain bleaching is measured reflectrometrically using a Colorgard System/05 Reflectometer. Bleaching is indicated by an increase in reflectance, reported as ΔR. In general a ΔR of one unit is perceivable in a paired comparison while ΔR of two units is perceivable monadically. In reporting the reflectance change, the change in reflectance caused by general detergency and bleaching by the excess hydrogen peroxide has been accounted for. Thus ΔR can actually be expressed as: ΔR=(the value of the Reflectance of stained fabric washed with precursor, H2 O2 and detergent minus the value of the Reflectance of stained fabric before washing) minus (the value of the Reflectance of stained fabric washed with H2 O2 and detergent alone minus the value of the Reflectance of stained fabric before washing).
The formulation of the detergent base used for the bleaching test is as follows: […]

[2] = Peracid generation from precursors (perhydrolysis yield); conditions: 40° C., [BPD] = 6.24 × 10^-4 M, [H2O2] = 6.24 × 10^-3 M
Description: The precursors described herein can be used to generate peroxycarbonic acid bleaches in basic aqueous solution containing a source of hydrogen peroxide and, optimally, may contain typical detergent ingredients. […] The hydrogen peroxide source is added just prior to addition of the precursor. Ten milliliter aliquots of solution are withdrawn from the beaker at regular intervals and are added to a 250 ml titration flask containing crushed ice (150 g), glacial acetic acid (30 ml) and 4% aqueous potassium iodide (5 ml). After development for ten minutes with occasional agitation, the iodine produced is titrated with standard sodium thiosulfate solution. Time zero is taken as the point of introduction of precursor into the peroxyide solution. Precursor perhydrolysis experiments are generally carried out for a maximum of 15 minutes.
Since hydrogen peroxide itself contributes to the total active oxygen in these titrations, controls or "blanks" are obtained by carrying out a perhydrolysis experiment in the absence of precursor. These hydrogen peroxide blanks are subtracted from the total active oxygen titration in the presence of bleach precursor to give the level of active oxygen produced by precursor perhydrolysis.
Peroxycarbonic acid generation is determined at pH 8, 9, and 10. Borax buffer is used for experiments at pH 9 and 10 while phosphate buffer is employed for experiments carried out at pH 8. Adjustment of the buffer systems at 40° C. to the exact pH is carried out with 1M hydrochloric acid or sodium hydroxide solution.

[3] = Biodegradability (statement, no test described); conditions: chelidamic acid moiety
[4] = Determination of calcium binding (Ca ion selective electrode titration); type: physicochemical; conditions: pH 10, 0.05 g/l solution, ionic strength 0.02-0.03M (NaCl), titrated with 0.02M CaCl2
Description: Calcium binding data was obtained at a pH of 10 by titrating 100 ml of 0.05 g/l precursor solution at an ionic strength of 0.02-0.03M (NaCl) with a 0.02M CaCl2 solution. A Radiometer calcium ion selective electrode was used to measure free Ca^++ ion concentration of the solutions. Data was corrected for dilution during each titration.

Structure (SMILES)	Bleaching Performance Δ R [1]	Binding Constants Log KCa [4]	also measured
O=C(Oc1cc(C(=O)O)nc(C(=O)O)c1)c1ccccc1.[Na].[Na] [BPD, Disodium, 4-Benzoyloxy-2,6-Pyridinedicarboxylic Acid]	> 6.0		Perhydrolysis yields from BPD (peroxycarbonic acid yield as a percent of theoretical), 1 minute ([2]; pH 10, 1 minute): 91.35%; Perhydrolysis yields from BPD (peroxycarbonic acid yield as a percent of theoretical), 8 minutes ([2]; pH 10, 8 minutes): 17.63%; Perhydrolysis yields from BPD (peroxycarbonic acid yield as a percent of theoretical), 15 minutes ([2]; pH 10, 15 minutes): 0%
O=C(Oc1cc(C(=O)O)nc(C(=O)O)c1)c1cccc(CCl)c1 [CBPD, Disodium, 4-(3-Chloromethyl)benzoyloxy-2,6-Pyridinedicarboxylic Acid]	> 6.0		
C[N+](C)(C)CCOC(=O)Oc1cc(C(=O)O)nc(C(=O)O)c1 [CCPD, Disodium, 4-Choline Carbonate-2,6-Pyridinedicarboxylic Acid]	> 15.0		
O=C(O)c1cc(O)cc(C(=O)O)n1 [Chelidamic Acid, 1,4-Dihydro-4-oxo-2,6-pyridine dicarboxylic acid]		5.70	biodegradability [3]: biodegradable
O=P(O)(O)OP(=O)(O)OP(=O)(O)O [Sodium Tripolyphosphate]		5.85	
